Laboratory results as given in paper PMC5315062 (Oncology and Therapy, 2016).
Entries after “also recorded” stand apart in the source; their conditions may differ.

Experiments:
[1] = Stability of ponatinib in rat bio-samples under different storage conditions; assay type: in vitro ADME; conditions: rat plasma, urine, feces; all RE (%) and RSD (%) below 15%
[2] = Single-dose pharmacokinetics of ponatinib in rats; assay type: in vivo, Sprague–Dawley rats; conditions: rat; for half-life: T 1/2, rat; for Tmax: T max
[3] = Single- versus multi-dose; conditions: rat
[4] = Tissue distribution in rats after i.g. 15.0 mg/kg; assay type: in vivo, Sprague–Dawley rats; conditions: for exposure in lung and thyroid: rat, 3, 9, 24 h
[5] = in vitro; large decrease in solubility with increasing pH; cited from earlier work
[6] = tested on: BCR–ABL1; conditions: cited from earlier work
[7] = healthy subjects, meal within 30 min prior to single oral administration; cited from earlier work
[8] = Toxicity and mortality after repeated intragastric administration in rats; assay type: in vivo
[9] = both, Sprague-Dawley, plasma, iv, 3 mg/kg
[10] = both, Sprague-Dawley, plasma, po, 7.5 mg/kg
[11] = both, Sprague-Dawley, plasma, po, 7.5 mg/kg, i.g. 7.5 mg/kg
[12] = both, Sprague-Dawley, plasma, po, 15 mg/kg
[13] = both, Sprague-Dawley, plasma, po, 15 mg/kg, i.g. 15.0 mg/kg
[14] = both, Sprague-Dawley, plasma, po, 30 mg/kg
[15] = both, Sprague-Dawley, plasma, po, 30 mg/kg, i.g. 30.0 mg/kg
[16] = both, Sprague-Dawley, in vivo, po, 3.75 mg/kg
[17] = i.g. 3.75 mg/kg once a day for 7 days (multi-dose)

With Cc1ccc(C(=O)Nc2ccc(CN3CCN(C)CC3)c(C(F)(F)F)c2)cc1C#Cc1cnc2cccnn12 [ponatinib, Ponatinib] the “stability under various storage conditions” value [1] was “stable”, the AUC(0-inf) [2, 9] was 2180 ± 462 ng·h/mL and the MRT [2, 9] was 9.77 ± 0.66 h. For the same molecule, the clearance [2, 9] was 23.8 mL/min/kg, the concentration at 5 min [2, 9] was 281 ± 129 ng/mL and the half-life ([2]; both, Sprague-Dawley, plasma, iv, 3 mg/kg, i.v. 3.0 mg/kg) was 6.17 ± 0.95 h. For the same molecule, the AUC(0-inf) [2, 10] was 1910 ± 353 ng·h/mL, the Cmax [2, 10] was 104 ± 23.4 ng/mL and the MRT [2, 10] was 16.4 ± 1.25 h. For the same molecule, the half-life [2, 11] was 10.9 ± 1.06 h, the Tmax [2, 11] was 8.4 ± 2.19 h and the AUC(0-inf) [2, 12] was 5030 ± 1010 ng·h/mL. It also gave a Cmax [2, 12] of 285 ± 69 ng/mL, an MRT [2, 12] of 16.7 ± 2.74 h and a half-life [2, 13] of 9.7 ± 1.43 h. The Tmax [2, 13] was 8.33 ± 0.82 h, the AUC(0-inf) [2, 14] was 11600 ± 2890 ng·h/mL and the Cmax [2, 14] was 638 ± 107 ng/mL. It also gave an MRT [2, 14] of 16.5 ± 2.36 h, a half-life [2, 15] of 9.66 ± 0.81 h and a Tmax [2, 15] of 7.67 ± 0.82 h. The CL ([2]; i.g. 7.5 mg/kg) was 67 ± 11.3 mL/min/kg, the V ([2]; i.g. 7.5 mg/kg) was 63.55 ± 14.02 L/kg and the CL ([2]; i.g. 15.0 mg/kg) was 51.2 ± 9.33 mL/min/kg. For the same molecule, the V ([2]; i.g. 15.0 mg/kg) was 42.85 ± 5.01 L/kg, the CL ([2]; i.g. 30.0 mg/kg) was 45.3 ± 12.7 mL/min/kg and the V ([2]; i.g. 30.0 mg/kg) was 37.78 ± 9.26 L/kg. The “exposure in plasma in relation to dose” value ([2]; i.g. 7.5, 15.0, 30.0 mg/kg) was “dose-dependent exposure”, the V ([2]; i.v. 3.0 mg/kg) was 12.93 ± 4.37 L/kg and the Cmax [3, 16] was 129 ± 37.6 ng/mL. The Cmax at 7 days [3, 16] was 189 ± 55.7 ng/mL, the Tmax [3, 16] was 10 ± 2.19 h and the Tmax at 7 days [3, 16] was 6.67 ± 3.01 h. It also gave a half-life [3, 16] of 11.3 ± 1.46 h, a half-life at 7 days [3, 16] of 10.9 ± 1.56 h and a CL [3, 17] of 11.7 ± 1.83 mL/min/kg. It also gave a V [3, 17] of 10.85 ± 1.49 L/kg, a CL ([3]; i.g. 3.75 mg/kg, single dose) of 29.8 ± 10.2 mL/min/kg and a V ([3]; i.g. 3.75 mg/kg, single dose) of 28.91 ± 9.47 L/kg. The “distribution into tissues of the body” value ([4]; rat) was “distributed widely; also recorded: widely distributed”, the “level in stomach, intestine and liver” value ([4]; rat) was “fairly low” and the “exposure in lung and thyroid” value [4] was “highly exposed; also recorded: highest levels”. The “exposure in lung and thyroid” value ([4]; listed as Ponatinib) was “highest exposure”, the aqueous solubility [5] was “pH-dependent” and the “concentration at which BCR–ABL1 is inhibited” value [6] was “above 40 nmol/L”. The “effect of a high- or low-fat meal on single-dose pharmacokinetics” value [7] was “no effect”, the toxicity ([8]; 3.75 mg/kg consecutive administration for 7 days) was “Toxicity was displayed to some extent” and the mortality ([8]; repeated intragastric administration over 6 mg/kg) was “increased; also recorded: high mortality”.
